Results on 1 compound are retold here after article PMC6158189, “A pharmacological probe identifies cystathionine β-synthase as a new negative regulator for ferroptosis” (Cell Death & Disease, 2018).

The structures appear in SMILES notation. Where “and” joins values, the source holds several entries; their conditions need not be identical. Equal values may be shown once. Read-outs that look alike come from different tables or passages of the source.

One assay deals with HepG2 cells. The experiment in a line: colony formation (crystal violet). The assay is classed as cell-based, human. The conditions noted are these: 24 h treatment. From the text: Figure S12. CH004 inhibits the proliferation of cells via specifically targeting hCBS. (A-B) Dose-dependent curves of CH004 on the cell viability of CBS-stably-expressed HEK293T (A) or CBS-knockdown cells (B). Percentages of cell viability of CH004 obtained in Figure 4b were fitted to the non-linear equation using GraphPad Prism 5 to get the IC50 values of CH004 in respective cell lines (●, 293T-CBS WT cells; ○, 293T-EV; ▲, 293T-shCBS; △, 293T-shNT). Means ± SDs (n=3). […] HEK293T cells stably expressing of the lentiviral shRNA targeting CBS (shCBS) or control shRNA (shNT) were seeded at the density of ~ 3,000 cells per well in 96-well plates and the cell images in the bright field were acquired at indicated times by Image Xpress Micro® XLS (Molecular Devices, Sunnyvale, CA) under 10 × objective lens. Representative images of two independent experiments (n = 6 for each experiment) are shown in C. The cell numbers of images under 4 × objective lens of one representative experiment were calculated by Image Xpress Software and the data is shown in D. Means ± SDs (n=6). […] HepG2 cells were seeded in a 96-well plate at a density of 20000 cells per well and cultured for 24 h before treatment with indicated concentrations of CH004 for another 24 h. The colonies were stained with crystal violet and quantified by measuring the absorbance at 590 nm. […] Means ± SDs (n=3). […]

In a further assay the target is T1, hCBS-413 (Homo sapiens, UniProt P35520).
T1 construct: hCBS-413 (a C-terminal truncated hCBS 1–413); GST (N); made in house; host or cells: E. coli BL21
T1 sequence (P35520 1-413): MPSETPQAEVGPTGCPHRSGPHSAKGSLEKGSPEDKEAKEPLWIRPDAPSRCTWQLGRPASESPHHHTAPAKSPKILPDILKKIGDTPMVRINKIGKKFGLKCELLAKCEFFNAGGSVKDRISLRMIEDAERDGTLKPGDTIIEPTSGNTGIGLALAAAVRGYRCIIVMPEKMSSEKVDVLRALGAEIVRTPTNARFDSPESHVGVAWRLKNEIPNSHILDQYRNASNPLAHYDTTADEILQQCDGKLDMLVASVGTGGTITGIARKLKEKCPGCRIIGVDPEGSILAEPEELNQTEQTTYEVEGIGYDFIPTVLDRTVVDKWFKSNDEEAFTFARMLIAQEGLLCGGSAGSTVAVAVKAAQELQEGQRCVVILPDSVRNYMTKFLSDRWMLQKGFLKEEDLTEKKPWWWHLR
Nature of the assay: purified hCBS-413 enzyme assay (192-tandem-well plate, H2S detected with DTNB). The assay is classed as biochemical. As for the experimental part: Fig. 1 CH004 inhibits the activity of hCBS in the in vitro purified enzyme assays under different assay conditions. a A scheme for the cascade enzymatic reactions catalyzed by CBS or CSE. Cth, cystathionine. b, c Inhibitory effects of CH004 on the activity of hCBS-413 (b) or hCSE (c). The enzyme activities were monitored for various concentrations of CH004 under the standard conditions (50 mM Tris-HCl, pH 8.6; “Materials and Methods” section). The result is shown as percentages of the control (DMSO, 100%). The data are shown as means ± SDS (n = 3). d The dose-dependent inhibition of CH004 on the hCBS-413 activity was measured by the tandem-well-based assay under the standard conditions except using 50 mM Hepes buffer (pH 7.4) instead of 50 mM Tris-HCl (pH 8.6). Means ± SDs (n = 3). e The dose-dependent inhibition of CH004 on the CBS activity measured by methylene blue method. The CBS enzyme assay was performed with a 50 μl assay buffer in an Eppendorf tube under the standard assay conditions for the 192-tandem-well based assay, i.e., 50 μl 50 mM Tris-HCl buffer (pH 8.6) containing 150 nM hCBS-FL, 200 μM S-adenosyl-L-methionine, 4 mM L-Cys and 4 mM D,L-Hcys, in the presence of 0 (DMSO control), 0.01, 0.5, 1, 5, 10 or 100 μM CH004. After 80 min, the assay was stopped by added 10 μL 10% ZnAC and the generated H2S was quantified by N,N-dimethyl-p-phenylenediamine to give an absorbance at 670 nm (for details, see Materials and Methods section; ref. [53]).
The IC50 values of CH004 for hCBS-413, hCBS-413 mutants, hCBS-FL, hCSE or hDDC were determined according to the standard assay conditions otherwise indicated.
Table S2. Inhibitory effects of CH004 on hCBS WT and mutants.

The term IC50 denotes the concentration that inhibits the measured activity by half. Take `Cn1nc(Cc2ccccc2)nc2c(=O)n(C)c(=O)nc1-2` [CH004, 3-benzyl-1,6-dimethylpyrimido[5,4-e][1,2,4]triazine-5,7(1H,6H)-dione]: the half-maximal inhibitory concentration (IC50) with HepG2 cells was roughly 8 µM; in the assay with HepG2 cells (Homo sapiens, HepG2, 24 h), roughly 7.9 µM; on hCBS-413 (150 nM purified CBS, 4 mM Hcys, 4 mM Cys, 50 mM Tris-HCl pH 8.6 (Table S2), read-out: IC50 hCBS WT), 1200 ± 50 nM; on hCBS-413 (hCBS-413, 50 mM Hepes buffer pH 7.4 instead of Tris-HCl pH 8.6, read-out: IC50 on hCBS (Hepes; pH 7.4)), 1100 ± 170 nM; on hCBS-413 (standard conditions, 50 mM Tris-HCl pH 8.6, read-out: IC50 on hCBS-413), ~1000 nM and 1000 nM. On hCBS-413 (Table S2), the “IC50 fold to WT, hCBS WT” value was determined as 1.
